Key:
[1] = tested on: H460; assay: Hoechst 33342 nuclear staining; assay type: cell-based, human; design: key: 0: no activity; 1: weak activity comprising less than 50% of the cells; 2: strong activity comprising more than 50% of the cells; conditions: 48 hour read-out
Description: (§1) This assay is performed in 96 well tissue culture plates. Appropriate number of cells (adherent cells: 3 - 5*10^3, suspension cells: 8 - 10*10^3) are being seeded out in 80 µl complete medium. Adherent cells are incubated for 24 h for proper spreading out before addition of test compounds while suspension cells are immediately treated with test compounds after seeding out. The test compounds are added in 20 µl complete medium containing max 5% DMSO. […] After 24 h or 48 h incubation at culture conditions, 10 µl medium containing Hoechst 33342 dye (Sigma B-2261) at 2-5 µg/ml are added to each well. The assay plates are then further incubated for 30 minutes and subsequently analyzed with a standard inverted fluorescence microscope.
(§2) The readout allows the determination of the fraction of apoptotic nuclei as well as other morphological criteria specific for apoptosis as a function of the treatment. Table 2: Hoechst 33342 nuclear staining (48 hour read-out)

[2] = tested on: HeLa; assay: Hoechst 33342 nuclear staining; assay type: cell-based, human; design: key: 0: no activity; 1: weak activity comprising less than 50% of the cells; 2: strong activity comprising more than 50% of the cells; conditions: 48 hour read-out
Description: as §1, §2

[3] = tested on: Jurkat; assay: Hoechst 33342 nuclear staining; assay type: cell-based, human; design: key: 0: no activity; 1: weak activity comprising less than 50% of the cells; 2: strong activity comprising more than 50% of the cells; conditions: 48 hour read-out
Description: as §1, §2

[4] = tested on: Jily; assay: Hoechst 33342 nuclear staining; assay type: cell-based; design: key: 0: no activity; 1: weak activity comprising less than 50% of the cells; 2: strong activity comprising more than 50% of the cells; conditions: 48 hour read-out
Description: as §1, §2

[5] = tested on: PBL; assay: Hoechst 33342 nuclear staining; assay type: cell-based; design: key: 0: no activity; 1: weak activity comprising less than 50% of the cells; 2: strong activity comprising more than 50% of the cells; conditions: 48 hour read-out
Description: as §1, §2

[6] = tested on: H460; assay: MTS proliferation assay; assay type: cell-based; conditions: Homo sapiens, NCI-H460; H460, 72 h incubation
Description: (§3) The assay is performed in 96 well tissue culture plates. The cells (range : 1.5*10^3 - 10^4) are seeded out in 80 µl complete medium 24 h prior to compound treatment. The test compounds are added in 20 µl complete medium containing max 5% DMSO. The final compound concentrations in the assays are 10 µM, 3 µM, 1 µM and 0.3 µM, respectively. The assay plates are incubated for 72 h at culture conditions. The MTS reagent is prepared according to the manufacturer's protocol (Promega G1111). 20 µl MTS reagent are added to each well, the assay plates are quickly spun and incubated for another 3 h at culture conditions. Subsequently, the plates are shortly shaked and absorption measured with a microplate-reader at 492 nm. Table 3: MTS proliferation assay

[7] = tested on: Jily; assay: MTS proliferation assay; assay type: cell-based; conditions: 72 h incubation
Description: as §3

[8] = tested on: MRC5; assay: MTS proliferation assay; assay type: cell-based; conditions: Homo sapiens; MRC5, 72 h incubation
Description: as §3

[9] = tested on: HeLa; assay: MTS proliferation assay; assay type: cell-based; conditions: Homo sapiens, 72 h incubation
Description: as §3

[10] = tested on: Jurkat; assay: MTS proliferation assay; assay type: cell-based; conditions: Homo sapiens, 72 h incubation
Description: as §3

Row | IC50 [6] [nM] | IC50 [9] [nM] | IC50 [10] [nM] | Compound | Hoechst 33342 nuclear staining score (fraction of apoptotic nuclei) ([1]; H460, 0.01µM) | Hoechst 33342 nuclear staining score (fraction of apoptotic nuclei) ([1]; H460, 0.1µM) | Hoechst 33342 nuclear staining score (fraction of apoptotic nuclei) ([1]; H460, 1µM) | Hoechst 33342 nuclear staining score (fraction of apoptotic nuclei) ([2]; 0.01µM) | Hoechst 33342 nuclear staining score (fraction of apoptotic nuclei) ([2]; 0.1µM) | Hoechst 33342 nuclear staining score (fraction of apoptotic nuclei) ([2]; 1µM) | Hoechst 33342 nuclear staining score (fraction of apoptotic nuclei) ([3]; 0.01µM) | Hoechst 33342 nuclear staining score (fraction of apoptotic nuclei) ([3]; 0.1µM) | Hoechst 33342 nuclear staining score (fraction of apoptotic nuclei) ([3]; 1µM) | Hoechst 33342 nuclear staining score (fraction of apoptotic nuclei) ([4]; 0.01µM) | Hoechst 33342 nuclear staining score (fraction of apoptotic nuclei) ([4]; 0.1µM) | Hoechst 33342 nuclear staining score (fraction of apoptotic nuclei) ([4]; 1µM) | Hoechst 33342 nuclear staining score (fraction of apoptotic nuclei) ([5]; 0.01µM) | Hoechst 33342 nuclear staining score (fraction of apoptotic nuclei) ([5]; 0.1µM) | Hoechst 33342 nuclear staining score (fraction of apoptotic nuclei) ([5]; 1µM) | IC50 [7] [nM] | IC50 [8] [nM]
1 | 100 to 1000 | 100 to 1000 | < 100 | COc1ccc(S(=O)(=O)n2cc(Br)cc2-c2cc(OC)c(OC)c(OC)c2)cc1 [Example 1, 4-Bromo-1-p-methoxyphenylsulfonyl-2-(3,4,5-trimethoxyphenyl)-pyrrole] | 0 | 2 (strong activity comprising more than 50% of the cells.) | 2 (strong activity comprising more than 50% of the cells.) | 0 | 0 | 2 (strong activity comprising more than 50% of the cells.) | 0 | 2 (strong activity comprising more than 50% of the cells.) | 2 (strong activity comprising more than 50% of the cells.) | 0 | 2 (strong activity comprising more than 50% of the cells.) | 2 (strong activity comprising more than 50% of the cells.) | 0 | 0 | 0 | 100 to 1000 | 100 to 1000
2 | < 100 | 100 to 1000 | < 100 | COc1ccc(S(=O)(=O)n2cccc2-c2cc(OC)c(OC)c(OC)c2)cc1 [Example 2, 1-p-methoxyphenylsulfonyl-2-(3,4,5-trimethoxyphenyl)-pyrrole] | 0 | 2 (strong activity comprising more than 50% of the cells.) | 2 (strong activity comprising more than 50% of the cells.) | 0 | 2 (strong activity comprising more than 50% of the cells.) | 2 (strong activity comprising more than 50% of the cells.) | 0 | 2 (strong activity comprising more than 50% of the cells.) | 2 (strong activity comprising more than 50% of the cells.) | 0 | 2 (strong activity comprising more than 50% of the cells.) | 2 (strong activity comprising more than 50% of the cells.) | 0 | 0 | 0 | < 100 | < 100
3 | < 100 | < 100 | < 100 | COc1ccc(S(=O)(=O)n2cc(C(=O)Nc3ccc(N4CCOCC4)cc3)cc2-c2cc(OC)c(OC)c(OC)c2)cc1 [Example 3, N-p-morpholinophenyl-1-p-methoxyphenylsulfonyl-2-(3,4,5-trimethoxyphenyl)-Pyrrole-4-carboxamide] | 0 | 2 (strong activity comprising more than 50% of the cells.) | 2 (strong activity comprising more than 50% of the cells.) | 0 | 2 (strong activity comprising more than 50% of the cells.) | 2 (strong activity comprising more than 50% of the cells.) | 2 (strong activity comprising more than 50% of the cells.) | 2 (strong activity comprising more than 50% of the cells.) | 2 (strong activity comprising more than 50% of the cells.) | 2 (strong activity comprising more than 50% of the cells.) | 2 (strong activity comprising more than 50% of the cells.) | 2 (strong activity comprising more than 50% of the cells.) | 0 | 0 | 0 | < 100 | < 100
